Measured values from US9999621B2, “Medical use of artemisinin compounds and gephyrin agonists” (CeMM-Forschungszentrum für Molekulare Medizin GmbH, priority 2014, dated 2018).
Read-outs that look alike come from different tables or passages of the source.

Experiments:
alphaTC1 cells = assay: Insulin expression in alpha cell line, immunofluorescence; assay type: cell-based, mouse; conditions: for insulin expression in alpha cells: alphaTC1 cells, immunofluorescence
[1] = system: Min6 cells overexpressing ARX; assay: High-throughput screen for functional repressors of ARX, insulin immunofluorescence; assay type: cell-based, mouse
Procedure: Mouse pancreatic cell lines αTC1 (provided by Novo Nordisk) and βTC3 (provided by Novo Nordisk) were grown in low-glucose DMEM supplemented by 10% FBS, 50 U/mL penicillin and 50 μg/mL streptomycin. Mouse pancreatic cell lines Min6 (provided by Novo Nordisk) with Doxycycline inducible construct was grown in high-glucose DMEM supplemented by 15% Tet System Approved FBS (Clonetech 631106), 71 uM 2-mercaptoethanol, 50 U/mL penicillin and 50 ug/mL streptomycin. The cell culture for human islets followed established protocols (Walpita et al., 2012).
Compounds (50 nL) were transferred to black optical suitable 384-well plate (Corning 3712) from DMSO stock plates using acoustic transfer (Labcyte Inc.). Min6 cells (3000 cells per well) were plated in 50 ul media on top of the compounds. Three days after treatment, cells were fixed in 3.7% formaldehyde for ten minutes at room temperature. Following PBS washing, cells were fixed with cold pure methanol at −20° C. for 10 minutes, permeabilized by 1% Triton X-100 in PBS for 30 minutes and blocked by 3% BSA in PBS for 30 minutes. Twenty microliters of primary anti-insulin antibody, diluted in 1:2000 in 1.5% BSA, was added per well and incubated in 4° C. overnight. […]
Images were taken by an automated microscope (Perkin Elmer Operetta) using a 20× objective. […] Images were analyzed by the Harmony (Perkin Elmer) software. […]

gephyrin [2] = target: T1, gephyrin (Mus musculus, UniProt Q8BUV3); assay: Gephyrin protein levels in alpha cells, Western blot and immunofluorescence; assay type: cell-based; set-up: endogenous in cells; host or cells: aTC1 mouse pancreatic alpha cell line; conditions: alpha cell line
T1 sequence (Q8BUV3 1-769): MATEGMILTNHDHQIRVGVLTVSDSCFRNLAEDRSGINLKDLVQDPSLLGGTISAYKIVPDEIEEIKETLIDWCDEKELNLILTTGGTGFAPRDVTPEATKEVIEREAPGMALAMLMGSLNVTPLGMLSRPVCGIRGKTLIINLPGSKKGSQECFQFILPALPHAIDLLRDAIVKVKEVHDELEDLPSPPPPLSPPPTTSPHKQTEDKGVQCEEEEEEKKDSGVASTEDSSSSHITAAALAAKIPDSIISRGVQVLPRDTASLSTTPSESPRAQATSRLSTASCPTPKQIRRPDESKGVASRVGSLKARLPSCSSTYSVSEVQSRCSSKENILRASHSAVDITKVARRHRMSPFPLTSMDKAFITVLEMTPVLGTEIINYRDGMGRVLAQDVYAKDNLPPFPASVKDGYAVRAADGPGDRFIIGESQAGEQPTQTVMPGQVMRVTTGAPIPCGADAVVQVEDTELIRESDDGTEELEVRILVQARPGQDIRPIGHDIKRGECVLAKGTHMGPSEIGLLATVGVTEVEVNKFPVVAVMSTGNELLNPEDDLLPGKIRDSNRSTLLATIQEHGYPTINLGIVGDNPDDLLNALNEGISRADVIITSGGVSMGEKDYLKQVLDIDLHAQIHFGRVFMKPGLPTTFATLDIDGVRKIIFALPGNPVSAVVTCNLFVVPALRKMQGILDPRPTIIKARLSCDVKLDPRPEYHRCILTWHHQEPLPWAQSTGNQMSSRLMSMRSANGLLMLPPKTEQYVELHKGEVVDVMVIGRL
Procedure: Whole cell extracts were generated by lysing cells in NP-40 buffer containing 150 mM sodium chloride, 1.0% NP-40 and 50 mM Tris, pH 8.0 supplemented by Protease Inhibitor Cocktail (Roche). The whole-cell lysate (30 μg) was loaded onto a SDSpolyacrylamide gel for electrophoresis at 30 mA per gel, and then transferred by electrophoresis to a nitrocellulose membrane (GE Healthcare Life Science). All the blots were incubated with the corresponding primary antibodies diluted in 1:1000 in 5% milk at 4° C. overnight and with HRP-labeled secondary antibodies (diluted 1:20000) for 1 h. The signals were detected using ECL Prime Western blotting Detection Reagent (Amersham).

Btbd9 = target: T2, Btbd9 (Mus musculus, UniProt Q8C726); assay: Chemical proteomics pull-down with artesunate matrix, competition by free artemether; assay type: binding; conditions: artesunate coupled to solid support, with and without competing free artemether
T2 construct: using 10 mg total cell lysate as protein input per replicate; endogenous in cells; host or cells: cell lysate
T2 sequence (Q8C726 1-612): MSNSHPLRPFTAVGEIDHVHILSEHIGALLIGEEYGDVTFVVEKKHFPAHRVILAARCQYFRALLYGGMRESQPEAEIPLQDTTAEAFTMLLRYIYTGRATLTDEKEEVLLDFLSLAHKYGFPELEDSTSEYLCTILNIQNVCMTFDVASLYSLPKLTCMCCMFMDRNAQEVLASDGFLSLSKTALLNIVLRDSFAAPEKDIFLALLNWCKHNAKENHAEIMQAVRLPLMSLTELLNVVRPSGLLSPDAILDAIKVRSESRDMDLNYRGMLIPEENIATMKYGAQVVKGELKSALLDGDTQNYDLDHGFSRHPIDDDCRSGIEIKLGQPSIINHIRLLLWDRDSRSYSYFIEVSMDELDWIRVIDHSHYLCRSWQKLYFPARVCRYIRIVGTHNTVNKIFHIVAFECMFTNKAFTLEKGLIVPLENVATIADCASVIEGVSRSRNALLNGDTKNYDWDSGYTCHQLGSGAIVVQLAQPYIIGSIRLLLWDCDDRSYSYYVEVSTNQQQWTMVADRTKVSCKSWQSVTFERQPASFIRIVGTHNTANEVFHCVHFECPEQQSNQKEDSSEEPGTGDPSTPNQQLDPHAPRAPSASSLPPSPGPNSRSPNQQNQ
Procedure: (§1) Drug-affinity matrices were prepared essentially as described previously (Huber et al, 2014). Briefly, ethylenediamine (2.7 μL, 40 μmol), ethanolamine (9.7 μL, 160 μmol), and triethylamine (15 μL, 108 μmol) were added to 500 μL NHS-activated Sepharose 4 Fast Flow beads (GE Healthcare Bio-Sciences AB, Uppsala, Sweden) and the reaction was put on a rotary shaker for 24 h. Beads were washed and resuspended in DMSO and NHS-activated artesunate (100 μL, 1.00 μmol) was added to the suspension, and the mixture was put on a rotary shaker for 24 h. Unreacted beads were blocked by addition of NHS-acetate (10 μmol) and triethylamine (25 μL, 180 μmol), followed by agitation on a rotary shaker for 24 h. After washing with DMSO and lysis buffer, beads were incubated with cell lysates.
(§2) Affinity chromatography and elution were performed in duplicate as reported previously (Huber et al, 2014), using 10 mg total cell lysate as protein input per replicate. […]
(§3) The initial peptide identifications were used to deduce independent linear transformations for precursor and fragment masses that would minimize the mean square deviation of measured masses from theoretical. […] A false discovery rate (FDR) of <1% for protein identifications and <0.1% for peptides (including the ones exported with lower scores) was determined by applying the same procedure against a database of reversed protein sequences. […]

CUL3 = assay: as above; assay type: binding, mouse; conditions: artesunate coupled to solid support, with and without competing free artemether
Procedure: as §1, §2, §3

gephyrin [3] = target: T1, gephyrin; assay: as above; assay type: binding; set-up: using 10 mg total cell lysate as protein input per replicate; endogenous in cells; host or cells: cell lysate; conditions: artesunate coupled to solid support, with and without competing free artemether
Procedure: as §1, §2, §3

aTC1 cells = assay: GABAR antagonists combined with artemether, insulin immunofluorescence; assay type: cell-based, mouse

## COC1OC2OC3(C)CCC4C(C)CCC(C1C)C24O3 (centres unmarked) [Deoxyartemether]
alphaTC1 cells
  insulin expression in alpha cells: no effects

## CO[C@H]1O[C@@H]2O[C@@]3(C)CC[C@H]4[C@H](C)CC[C@@H]([C@H]1C)[C@@]24OO3 [artemether]
[1]; Mus musculus, Min6 cells overexpressing ARX, dose response, immunofluorescence (FIG. 3c), read-out: half maximum effective concentration
  EC50: < 1 µM
alphaTC1 cells; Mus musculus, 72 h, alpha cells, inducing insulin expression, immunofluorescence (FIG. 3d), read-out: half maximum effective concentration
  EC50: < 10 µM

## C[C@@H]1CC[C@H]2[C@@H](C)C(=O)O[C@@H]3O[C@@]4(C)CC[C@@H]1[C@]32OO4 [artemisinin, (3R,5aS,6R,8aS,9R,12S,12aR)-octahydro-3,6,9-trimethyl-3,12-epoxy-12H-pyrano[4,3-j]-1,2-benzodioxepin-10(3H)-one]
Gephyrin [2]
  gephyrin protein levels: dose-dependent increase

## C[C@H]1[C@H](OC(=O)CCC(=O)O)O[C@@H]2O[C@@]3(C)CC[C@H]4[C@H](C)CC[C@@H]1[C@@]24OO3 [artesunate]
[1]; Min6 cells induced to overexpress ARX, 72 hours, immunofluorescence
  insulin levels in the presence of ARX (ARX overexpression phenotype): active
Btbd9
  enrichment in pull-down: strong enrichment
CUL3
  enrichment in pull-down: strong enrichment
Gephyrin [3]
  specific interactor identified by mass spectrometry: top specific interactor
alphaTC1 cells
  insulin expression in alpha cells: active

## CCO[C@H]1O[C@@H]2O[C@@]3(C)CC[C@H]4[C@H](C)CC[C@@H]([C@H]1C)[C@@]24O3 [deoxyarteether]
alphaTC1 cells
  insulin expression in alpha cells: inactive

## COc1ccc(-c2ccc(=N)n(CCCC(=O)O)n2)cc1 [gabazine]
aTC1 cells
  effect of GABAR antagonist on the effects of artemether: inhibited the effects of artemether
aTC1 cells; listed as Gabazine
  effect of GABAR antagonist on the effects of artemether: inhibits the effects of Artemether

## Cc1ccsc1C(=CCCN1CCC[C@@H](C(=O)O)C1)c1sccc1C [thiagabine]
alphaTC1 cells
  insulin expression in alpha cells: increased the insulin expression
alphaTC1 cells; listed as Thiagabine
  insulin expression in alpha cells: increases insulin production
